Where two headings read alike, the source gives them in different places. One block for each compound: values may come before it.
Experiments:
[1] = pKa determination by differential scanning potentiometry (DSP); type: physicochemical
Method: In the differential scanning potentiometry (DSP) methodology, acid and basic groups generate negative and positive areas, respectively. Thus, the NH acidic groups of AZT and thymidine were used as reference to validate the DSP, since their pKa values had been previously reported.
A conventional pH-meter (GLP 21, Crison Instrument) with an Ag/AgCl-reference electrode was used. NaOH was added at 0.1 mL increments, with its corresponding pH value recorded from the average of two sample determinations using DMSO as the cosolvent (2.5 %) at 25 °C. The areas were calculated using the Origin 7 program. For the reference graph, an aliquot of 10 mL of HCl (0.1 mol L^−1) and 0.5 mL of DMSO was titrated with NaOH (0.1 mol L^−1); for the sample graphs, aliquots (10 mL) of HCl (0.1 mol L^−1), 0.5 mL DMSO and 0.12 mmol for each compound were titrated with NaOH (0.1 mol L^−1). The volume of each solution was completed to 20 mL with Milli-Q water before titration.

[2] = aqueous stability in buffers of different pH at 60 °C, HPLC; type: physicochemical; set-up: key to Aqueous stability: Stable: degradation products by HPLC were not observed after 80 h of experiment; Unstable: The determination was not possible due to a rapid decomposition; details: for half-life at 0.5 mM: aqueous buffer, read-out: t½
From the text: Table 2 lists the pH media, experimental rate constants (kobs, when it could be determined) and their corresponding half-life times (t½).
The aqueous stability of AZT and their derivatives 2–6 was examined at different pH values: pH 1.0 (hydrochloric acid-potassium chloride); pH 2.6 (citric acid-sodium phosphate monobasic); pH 7.4 (sodium phosphate dibasic); pH 9.4 (sodium hydrogen carbonate-sodium hydroxide) and pH 13.2 (potassium chloride-sodium hydroxide). The buffer concentrations were 0.1 mol L^−1 and the ionic strength (μ) of the buffers was adjusted to 0.1 with calculated amount of sodium chloride (NaCl). All buffer solutions were prepared with Milli Q water. The pH of each solution was determined using a GLP 21 (Crison Instruments) pHmeter. Stock solutions (5 × 10^−5 mol mL^−1) of each compound were prepared in DMSO prior to use, with 10 μL of the stock solution being added to 990 μL of buffer, and the vials placed in a water bath at 60 °C during all the experiment. Each vial was withdrawn at predetermined time intervals, and immediately stored at −18 °C until being used. For their analysis, the samples were left to defrost, and the aliquots of 100 μL were sampled and added to 400 μL of MeOH at 25 °C. Then, the solution was analyzed by HPLC to determine the rate of disappearance of each compound.
Samples were analyzed using an HPLC system Agilent® 1100 equipped with Phenomenex® column: Hypersil ODS 5 μ particle diameter (4.6 × 250 mm). Detection was carried out with an UV detector at λ = 267 nm, using the following three solvent systems as mobile phases with a flow rate of 1 mL min^−1 at 35 °C: A); 50% phosphate buffer (pH 7.5, 0.02 mol L^−1), 50% MeOH and 2% THF; B) 60% phosphate buffer (pH 7.5, 0.02 mol L^−1), 40% MeOH and 2% THF; and; C) 65% phosphate buffer (pH 7.5, 0.02 mol L^−1), 35% MeOH and 2% THF to obtain an adequate peak separation.

[3] = cited from earlier work
[4] = Differential Scanning Calorimetry (DSC) and Thermogravimetry (TG); type: physicochemical; details: for DSC exothermic decomposition peak: accompanied by weight loss in TG, nitrogen atmosphere, 25–300 °C; for glass transition, small DSC endothermic peak (T onset): extrapolated onset temperature
Method: Compounds 2, 4, 5 and 6 also presented an exothermic decomposition peak above 150 °C, which is accompanied by a weight loss in the respective TG curves (Figure 3).
(§1) DSC measurements were carried out using a 2920 modulated DSC (TA Instrument). The temperature axis and the cell constant of the DSC were calibrated with indium. Weighed samples (1.5–3 mg, C-33 Microbalance, Cahan) were scanned in covered aluminium (Al) pans under a dynamic dry nitrogen atmosphere (50 mL min^−1) starting at 25 °C and raising the temperature in 5 °C steps until reaching 300 °C. TG measurements were performed with a TA Instrument Hi-res TG 2950 (TA Instrument). Samples (1.5–3 mg) were weighed in Al pans, starting at 25 °C and raising the temperature in 5 °C steps until reaching 300 °C, under a dynamic dry nitrogen atmosphere (50 mL min^−1). The Universal Analysis Version 2.5H software was used for both measurements. The XRPD patterns were determined at around 20 °C using a diffractometer (Miniflex 2000, Rigaku), with CuKα radiation (λ= 1.5418 Å) being obtained by Ni-filtration. Each sample was packed into an Al holder in the range of 5–50 (2Θ).

[5] = set-up: method as in earlier work; details: cited from earlier work
[6] = tested on: HIV; set-up: method as in earlier work; details: previous in vitro studies; cited from earlier work
[7] = set-up: method as in earlier work; details: cited from earlier work; remark: listed apart in the source
[8] = X-Ray Powder Diffractometry (XRPD); type: physicochemical; details: around 20 °C, CuKα radiation
Method: XRPD analysis provides an accurate identification of crystalline and amorphous solid phases. The XRPD patterns of AZT and their derivatives 2–6 are depicted in Figure 4.
as §1

[9] = aqueous HCl solution with DMSO cosolvent, titrated with NaOH, DSP, DMSO 2.5 % cosolvent, 25 °C, calculated from area with eq. 2, read-out: pKa, NH group of the pyrimidinic base, experimental value
[10] = aqueous HCl solution with DMSO cosolvent, titrated with NaOH, DSP, DMSO 2.5 % cosolvent, 25 °C, calculated from area with eq. 2, read-out: pKa, aliphatic amine, experimental value

pKa ([1]; pKa, NH group of the pyrimidinic base, experimental value): 9.45
SMILES: Cc1cn([C@H]2C[C@H](O)[C@@H](CO)O2)c(=O)[nH]c1=O [Thymidine, reference compound]

SMILES: Cc1cn([C@H]2C[C@H](N=[N+]=[N-])[C@@H](CO)O2)c(=O)[nH]c1=O [compound 1, 3′-Azido-3′-deoxythymidine, reference compound]
pKa ([1]; DSP, DMSO 2.5 % cosolvent, 25 °C, calculated from area with eq. 2, read-out: pKa, NH group of the pyrimidinic base, experimental value): 9.42 | Aqueous stability ([2]; pH 1.0, 60 °C): Stable^a | aqueous stability over the studied pH media, in words ([2]; pH 1.0–13.2): stable at the studied pH media | Aqueous stability ([2]; pH 7.4, 60 °C): Stable^a | Aqueous stability ([2]; pH 9.4, 60 °C): Stable^a | Aqueous stability ([2]; pH 13.2, 60 °C): Stable^a | pKa, NH acidic group, previously reported experimental value [3]: 9.68

half-life at 0.5 mM ([2]; pH 7.4, 60 °C): 12.1 h | half-life at 0.5 mM ([2]; pH 9.4, 60 °C): 0.775 h | half-life at 0.5 mM ([2]; pH 13.2, 60 °C): 0.765 h | Aqueous stability ([2]; pH 1.0, 60 °C): Stable^a | Degradation rate constant, kobs ([2]; pH 7.4, 60 °C): 0.94 10^−3 min^−1 | Degradation rate constant, kobs ([2]; pH 9.4, 60 °C): 14.9 10^−3 min^−1 | Degradation rate constant, kobs ([2]; pH 13.2, 60 °C): 15.1 10^−3 min^−1 | DSC exothermic decomposition peak [4]: above 150 °C
SMILES: Cc1ccc(S(=O)(=O)OC[C@H]2O[C@@H](n3cc(C)c(=O)[nH]c3=O)C[C@@H]2N=[N+]=[N-])cc1 [compound 2]
stability in rat plasma [5]: stable | anti-HIV activity [6]: lacked the necessary activity

half-life at 0.5 mM ([2]; pH 1.0, 60 °C): 2.13 h | half-life at 0.5 mM ([2]; pH 7.4, 60 °C): 79.2 h | half-life at 0.5 mM ([2]; pH 9.4, 60 °C): 2.07 h | Degradation rate constant, kobs ([2]; pH 1.0, 60 °C): 5.43 10^−3 min^−1 | Degradation rate constant, kobs ([2]; pH 7.4, 60 °C): 0.15 10^−3 min^−1 | Degradation rate constant, kobs ([2]; pH 9.4, 60 °C): 5.58 10^−3 min^−1 | Aqueous stability ([2]; pH 13.2, 60 °C): Unstable^d | DSC exothermic decomposition peak [4]: 215 °C
SMILES: Cc1cn2c(nc1=O)OC[C@H]1O[C@@H]2C[C@@H]1N=[N+]=[N-] [compound 3]
stability in rat plasma ([5]; 30 h of incubation at 37 °C): showed stability | anti-HIV activity [6]: anti-HIV activity | cytotoxicity [7]: no cytotoxicity

pKa [1, 9]: 8.61 | half-life at 0.5 mM ([2]; pH 13.2, 60 °C): 11.2 h | Aqueous stability ([2]; pH 1.0, 60 °C): Stable^a | Aqueous stability ([2]; pH 7.4, 60 °C): Stable^a | Aqueous stability ([2]; pH 9.4, 60 °C): Stable^a | Degradation rate constant, kobs ([2]; pH 13.2, 60 °C): 1.04 10^−3 min^−1 | kobs ([2]; pH 13.2, 60 °C): 0.00104 min⁻¹ | DSC exothermic decomposition peak [4]: above 150 °C
SMILES: Cc1cn([C@H]2C[C@H](N=[N+]=[N-])[C@@H](COC(=O)N3CCCCC3)O2)c(=O)[nH]c1=O [compound 4]

SMILES: Cc1cn([C@H]2C[C@H](N=[N+]=[N-])[C@@H](COC(=O)N3CCNCC3)O2)c(=O)[nH]c1=O [compound 5]
pKa [1, 9]: 8.66 | pKa [1, 10]: 6.52 | half-life at 0.5 mM ([2]; pH 13.2, 60 °C): 3.97 h | Aqueous stability ([2]; pH 1.0, 60 °C): Stable^a | Aqueous stability ([2]; pH 7.4, 60 °C): Stable^a | Aqueous stability ([2]; pH 9.4, 60 °C): Stable^a | kobs ([2]; pH 13.2, 60 °C): 0.00323 min⁻¹ | DSC exothermic decomposition peak [4]: above 150 °C | glass transition, small DSC endothermic peak (T onset) [4]: 35.1 °C | solid state by XRPD (crystalline or amorphous) [8]: amorphous

SMILES: Cc1cn([C@H]2C[C@H](N=[N+]=[N-])[C@@H](COC(=O)NCCN3CCNCC3)O2)c(=O)[nH]c1=O [compound 6]
pKa [1, 10]: 9.03 | half-life at 0.5 mM ([2]; pH 13.2, 60 °C): 6.48 h | Aqueous stability ([2]; pH 1.0, 60 °C): Stable^a | Aqueous stability ([2]; pH 7.4, 60 °C): Stable^a | Aqueous stability ([2]; pH 9.4, 60 °C): Stable^a | Degradation rate constant, kobs ([2]; pH 13.2, 60 °C): 1.96 10^−3 min^−1 | kobs ([2]; pH 13.2, 60 °C): 0.00196 min⁻¹ | DSC exothermic decomposition peak [4]: above 150 °C | glass transition, small DSC endothermic peak (T onset) [4]: 42.5 °C | solid state by XRPD (crystalline or amorphous) [8]: amorphous

SMILES: CC[C@H]1OC(=O)[C@H](C)[C@@H](O[C@H]2C[C@@](C)(OC)[C@@H](O)[C@H](C)O2)[C@H](C)[C@@H](O[C@@H]2O[C@H](C)C[C@H](N(C)C)[C@H]2O)[C@](C)(O)C[C@@H](C)C(=O)[C@H](C)[C@@H](O)[C@]1(C)O [erytromycine]
pKa of compounds used for regression of DSP area vs pKa (eq. 2) ([3]; reference values, source not given): 8.80

Reference: article PMC3163364, “Preformulation Studies of Zidovudine Derivatives: Acid Dissociation Constants, Differential Scanning Calorimetry, Thermogravimetry, X-Ray Powder Diffractometry and Aqueous Stability Studies” (Scientia Pharmaceutica, 2011)
